Columns and labels:
Format in all cases: in vivo
[1] = test system: field corn (variety: PIONEERDENT 30N34); test: Test Example 4: above-ground height of field corn, pot, 300 L/ha; settings: dose 120 g/ha; (c) polyoxyethylene hydrogenated castor oil 0.08 w/v %; 14th day
Description: Upland field soil was put into a […] hectare pot, and seeds of field corn (variety: PIONEERDENT 30N34, variety highly susceptible to component (a)) were sown. When the field corn reached 3.5 to 4.0 leaf stage, an oil-based suspension containing the component (a) and the component (c) (polyoxyethylene hydrogenated castor oil), and a wettable powder containing the component (b) were diluted with water in an amount corresponding to 300 L/ha to prepare spray solutions. The concentration of the component (c) in the spray solution was 0.08 weight/volume percent. The spray solutions were applied to foliage with a small sprayer. On the 14th day after the foliar application, the above-ground height of the field corn was measured, and the height ratio was calculated in accordance with the following formula. The above-ground height in the untreated plot was 75.8 cm.
(§1) Height ratio (%)=(above-ground height in the treated plot)/(above-ground height in the untreated plot)×100

[2] = test system: field corn (variety: PIONEERDENT 30N34); test: Test Example 5: above-ground height of field corn, agricultural field, 300 L/ha; settings: dose 30 g/ha; (c) polyoxyethylene hydrogenated castor oil 0.020 w/v %; 14th day
Description: In an agricultural field having seeds of field corn (variety: PIONEERDENT 30N34, variety highly susceptible to component (a)) sown, when the field corn reached 3.1 to 3.5 leaf stage, an oil-based suspension containing the component (a) and the component (c) (polyoxyethylene hydrogenated castor oil), and a wettable powder containing the component (b) were diluted with water in an amount corresponding to 300 L/ha to prepare spray solutions, which were applied to foliage with a Teejet 80015VS nozzle. The concentration of the component (c) in the spray solution was 0.020 weight/volume percent. On the 14th day after the foliar application, the above-ground height of the field corn was measured, and the height ratio was calculated in accordance with the following formula. The above-ground height in the untreated plot was 76.7 cm.
Height ratio (%) =(above-ground height in the treated plot)/(above-ground height in the untreated plot)×100

[3] = test system: field corn (variety: SNOWDENT SH2933); test: Test Example 6: above-ground height of field corn, pot, 300 L/ha; settings: dose 30 g/ha; (c) sodium polyoxyethylene alkyl ether phosphate 0.033 w/v %; 14th day
Description: On the 14th day after the foliar application, the above-ground height of the field corn was measured, and the height ratio was calculated in accordance with the following formula.
Height ratio (%)=(above-ground height in the treated plot)/(above-ground height in the untreated plot) ×100

[4] = test system: field corn (variety: SNOWDENT SH2933); test: Test Example 7: above-ground height of field corn, agricultural field, 200 L/ha; settings: 27th day
Description: On the 27th day after the foliar application, the above-ground height of the field corn was measured, and the height ratio was calculated in accordance with the following formula.
as §1

[5] = test system: field corn (variety: SNOWDENT SH2933); test: Test Example 8: above-ground height of field corn, agricultural field, 500 L/ha; settings: 28th day
Description: On the 28th day after the foliar application , the above-ground height of the field corn was measured, and the height ratio was calculated in accordance with the following formula.
as §1

[6] = dose 20 g/ha, (c) polyoxyethylene hydrogenated castor oil 0.02 w/v %
[7] = dose 30 g/ha, (c) polyoxyethylene hydrogenated castor oil 0.03 w/v %
[8] = dose 40 g/ha, (c) polyoxyethylene hydrogenated castor oil 0.04 w/v %
[9] = dose 60 g/ha, (c) polyoxyethylene hydrogenated castor oil 0.06 w/v %
[10] = dose 80 g/ha, (c) polyoxyethylene hydrogenated castor oil 0.08 w/v %
[11] = dose 120 g/ha, (c) polyoxyethylene hydrogenated castor oil 0.12 w/v %
[12] = dose 60 g/ha, (c) sodium polyoxyethylene alkyl ether phosphate 0.04 w/v %
[13] = dose 90 g/ha, (c) sodium polyoxyethylene alkyl ether phosphate 0.06 w/v %
[14] = dose 120 g/ha, (c) sodium polyoxyethylene alkyl ether phosphate 0.08 w/v %

SMILES: COc1cc(OC)nc(NC(=O)NS(=O)(=O)c2ncccc2C(=O)N(C)C)n1 [Component (a), nicosulfuron]
- Above-ground height [1]: 41.3 cm
- Height ratio [1]: 55%
- Above-ground height [2]: 66.6 cm
- Height ratio [2]: 87%
- Above-ground height [3]: 46.8 cm
- Height ratio [3]: 75%
- Above-ground height [4, 6]: 125.5 cm
- Height ratio [4, 6]: 86%
- Above-ground height [4, 7]: 124.0 cm
- Height ratio [4, 7]: 84%
- Above-ground height [4, 8]: 129.9 cm
- Height ratio [4, 8]: 88%
- Above-ground height [4, 9]: 122.3 cm
- Height ratio [4, 9]: 83%
- Above-ground height [4, 10]: 110.7 cm
- Height ratio [4, 10]: 75%
- Above-ground height [4, 11]: 107.4 cm
- Height ratio [4, 11]: 73%
- Above-ground height [5, 12]: 107.2 cm
- Height ratio [5, 12]: 81%
- Above-ground height [5, 13]: 88.6 cm
- Height ratio [5, 13]: 67%
- Above-ground height [5, 14]: 86.3 cm
- Height ratio [5, 14]: 65%
